Laboratory results published in PMC12775434, “Ultra-large virtual screening unveils potent agonists of the neuromodulatory orphan receptor GPR139” (Nature Communications, 2025).
Values joined by “and” are separate entries in the source; they are usually repeats but may differ in a detail not shown here. Equal entries are not always repeated. Where two headings read alike, the source gives them in different places.

Experiments:
Assay type in all cases: cell-based
[1] = target: T1, GPR139 (Homo sapiens, UniProt Q6DWJ6); experiment: Ca2+ mobilization assay, agonist mode, stable GPR139-CHOk1 cell line; details: for Emax: normalized to Lundbeck Cmp 1a, read-out: Emax (%) Ca2+
T1 sequence (Q6DWJ6 1-353): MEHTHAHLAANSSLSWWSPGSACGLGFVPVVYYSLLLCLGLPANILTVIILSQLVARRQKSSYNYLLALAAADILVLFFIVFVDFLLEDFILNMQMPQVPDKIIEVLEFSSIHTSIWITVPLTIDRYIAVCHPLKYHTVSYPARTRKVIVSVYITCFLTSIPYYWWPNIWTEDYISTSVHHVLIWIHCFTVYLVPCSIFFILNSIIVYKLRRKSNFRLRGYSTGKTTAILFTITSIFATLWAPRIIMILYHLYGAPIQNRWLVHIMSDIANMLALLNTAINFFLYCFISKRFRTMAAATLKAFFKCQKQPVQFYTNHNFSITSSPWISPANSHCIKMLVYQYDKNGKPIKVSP
In short: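 Agonist activity of compounds is assessed in stably transfected CHO-K1 cells using the calcium dye Fluo-4 at 37 °C in HEPES-buffered HBSS (pH 7.4). Efficacy is expressed relative to the reference agonist Lundbeck Cmp 1a, set as 100%.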

[2] = target: T1, GPR139; experiment: Ca2+ mobilization assay, antagonist mode (EC80 800 nM Lundbeck Cmp 1a after 20 min preincubation), GPR139-CHOk1; details: individual replicates (Supplementary Figure 4)
In short: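 Fluo-4-loaded GPR139-CHOk1 cells in HEPES-buffered HBSS (pH 7.4, 2.5 mM probenecid) given test compounds at 10 µM, then after 20 min challenged with 800 nM Lundbeck Cmp 1a (EC80). Calcium fluorescence read at 37 °C, 485/525 nm.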

[3] = target: T2, human muscarinic acetylcholine M1 receptor (M1R) (Homo sapiens, UniProt P11229); experiment: Ca2+ mobilization counter-screen in M1R-CHOk1 cells; details: individual replicates (Supplementary Figure 5)
T2 sequence (P11229 1-460): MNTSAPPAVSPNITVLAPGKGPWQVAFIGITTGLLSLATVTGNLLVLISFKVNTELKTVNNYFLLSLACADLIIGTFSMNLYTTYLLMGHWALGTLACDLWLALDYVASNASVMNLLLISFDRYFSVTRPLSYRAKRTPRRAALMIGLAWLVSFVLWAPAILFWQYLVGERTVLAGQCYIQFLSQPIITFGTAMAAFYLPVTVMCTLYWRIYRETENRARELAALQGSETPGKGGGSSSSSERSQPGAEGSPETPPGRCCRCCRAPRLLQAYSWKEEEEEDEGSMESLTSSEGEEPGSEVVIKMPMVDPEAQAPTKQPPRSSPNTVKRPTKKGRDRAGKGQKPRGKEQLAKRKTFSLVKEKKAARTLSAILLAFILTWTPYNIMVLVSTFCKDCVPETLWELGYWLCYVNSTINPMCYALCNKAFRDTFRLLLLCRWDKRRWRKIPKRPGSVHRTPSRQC
In short: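 Intracellular calcium is tracked by Fluo-4 fluorescence at 37 °C in M1R-CHOk1 cells, with compounds dispensed automatically once baseline is taken. Buffer is HBSS with 20 mM HEPES, pH 7.4, plus 2.5 mM probenecid.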

[4] = Agonist mode, individual replicates (Supplementary Figure 4)
[5] = GPR139-CHOk1, read-out: EC50, Ca2+ mobilization
[6] = Supplementary Table 2, mean ± SEM
[7] = log [Compound] M = -4.5, individual replicate columns
[8] = log [Compound] M = -5.0, individual replicate columns
[9] = log [Compound] M = -5.5, individual replicate columns
[10] = log [Compound] M = -6.0, individual replicate columns
[11] = log [Compound] M = -6.5, individual replicate columns
[12] = log [Compound] M = -7.0, individual replicate columns
[13] = log [Compound] M = -7.5, individual replicate columns
[14] = log [Compound] M = -8.0, individual replicate columns
[15] = log [Compound] M = -8.5, individual replicate columns
[16] = log [Compound] M = -9.0, individual replicate columns
[17] = Supplementary Table 2, mean ± SEM, read-out: pEC50 Ca2+ (converted)

SMILES | Ca2+ signal (% of Cmp 1a) [1, 4] | EC50 [1, 5] [nM] | Emax [1, 6] [%] | Ca2+ signal (% of Cmp 1a) [1, 7] | Ca2+ signal (% of Cmp 1a) [1, 8] | Ca2+ signal (% of Cmp 1a) [1, 9] | Ca2+ signal (% of Cmp 1a) [1, 10] | Ca2+ signal (% of Cmp 1a) [1, 11] | Ca2+ signal (% of Cmp 1a) [1, 12] | Ca2+ signal (% of Cmp 1a) [1, 13] | Ca2+ signal (% of Cmp 1a) [1, 14] | Ca2+ signal (% of Cmp 1a) [1, 15] | Ca2+ signal (% of Cmp 1a) [1, 16] | Ca2+ signal (% of Cmp 1a) [2] | Ca2+ signal (% of Carbachol) [3] | fold decrease in potency relative to parent compound 1 ([1]; Ca2+ mobilization EC50) | EC50 [1, 17] [nM] | fold decrease in potency relative to a similar phenyl substituted compound (1.3) ([1]; Ca2+ mobilization EC50)
Cc1ccc(-c2nc(CC(=O)NC(C)c3ccccc3)no2)cc1 (centres unmarked) [Compound 1.14, CC(C1=CC=CC=C1)NC(CC2=NOC(C3=CC=C(C)C=C3)=N2)=O] | 71 % of Cmp 1a and 82 % of Cmp 1a and 46 % of Cmp 1a | 400 | 89 ± 15 | 97 % of Cmp 1a and 92 % of Cmp 1a and 89 % of Cmp 1a and 44 % of Cmp 1a | 79 % of Cmp 1a and 86 % of Cmp 1a and 77 % of Cmp 1a and 48 % of Cmp 1a | 61 % of Cmp 1a and 79 % of Cmp 1a and 69 % of Cmp 1a and 48 % of Cmp 1a | 61 % of Cmp 1a and 52 % of Cmp 1a and 58 % of Cmp 1a and 40 % of Cmp 1a | 42 % of Cmp 1a and 32 % of Cmp 1a and 38 % of Cmp 1a and 28 % of Cmp 1a | 17 % of Cmp 1a and 12 % of Cmp 1a and 27 % of Cmp 1a and 22 % of Cmp 1a | 5.33 % of Cmp 1a and 7 % of Cmp 1a and 30 % of Cmp 1a and -6 % of Cmp 1a | 12 % of Cmp 1a and 2.67 % of Cmp 1a (2×) and 0.667 % of Cmp 1a | -1.67 % of Cmp 1a and -4 % of Cmp 1a and 1.67 % of Cmp 1a | 8 % of Cmp 1a and 10 % of Cmp 1a and -3.67 % of Cmp 1a and 1 % of Cmp 1a | 7 % of Cmp 1a and -0.667 % of Cmp 1a and 13 % of Cmp 1a | -9 % of Carbachol and -1 % of Carbachol and 10 % of Carbachol |  |  | 
Cc1nc(-c2nc(CC(=O)NC(C)c3ccccc3)no2)cs1 (centres unmarked) [Compound 1.15, CC(C1=CC=CC=C1)NC(CC2=NOC(C3=CSC(C)=N3)=N2)=O] | 96 % of Cmp 1a and 108 % of Cmp 1a and 104 % of Cmp 1a |  | 105 ± 4 | 94 % of Cmp 1a and 99 % of Cmp 1a and 118 % of Cmp 1a and 102 % of Cmp 1a | 101 % of Cmp 1a and 90 % of Cmp 1a and 112 % of Cmp 1a and 100 % of Cmp 1a | 104 % of Cmp 1a and 84 % of Cmp 1a and 109 % of Cmp 1a and 112 % of Cmp 1a | 70 % of Cmp 1a and 62 % of Cmp 1a and 81 % of Cmp 1a and 93 % of Cmp 1a | 46 % of Cmp 1a (2×) and 31 % of Cmp 1a and 57 % of Cmp 1a | 12 % of Cmp 1a and 11 % of Cmp 1a and 21 % of Cmp 1a and 17 % of Cmp 1a | 8 % of Cmp 1a and -0.333 % of Cmp 1a and 13 % of Cmp 1a and 5.67 % of Cmp 1a | 1.67 % of Cmp 1a and -3.67 % of Cmp 1a and 8 % of Cmp 1a and -2 % of Cmp 1a | 1 % of Cmp 1a and 15 % of Cmp 1a and 11 % of Cmp 1a and 10 % of Cmp 1a | 0.667 % of Cmp 1a and 7 % of Cmp 1a (2×) and 12 % of Cmp 1a | 7 % of Cmp 1a and 2.33 % of Cmp 1a | 3 % of Carbachol and 14 % of Carbachol | 3- to 25 fold | 501 | 
Cc1ccnc(-c2nc(CC(=O)NC(C)c3ccccc3)no2)c1 (centres unmarked) [Compound 1.17, CC(C1=CC=CC=C1)NC(CC2=NOC(C3=NC=CC(C)=C3)=N2)=O] | 56 % of Cmp 1a and 85 % of Cmp 1a and 81 % of Cmp 1a |  | 98 ± 3 | 97 % of Cmp 1a (2×) and 99 % of Cmp 1a and 98 % of Cmp 1a and 90 % of Cmp 1a | 111 % of Cmp 1a and 99 % of Cmp 1a and 92 % of Cmp 1a and 73 % of Cmp 1a and 91 % of Cmp 1a | 133 % of Cmp 1a and 107 % of Cmp 1a and 62 % of Cmp 1a and 54 % of Cmp 1a and 75 % of Cmp 1a | 82 % of Cmp 1a and 74 % of Cmp 1a and 57 % of Cmp 1a and 42 % of Cmp 1a and 56 % of Cmp 1a | 39 % of Cmp 1a and 41 % of Cmp 1a and 22 % of Cmp 1a and 13 % of Cmp 1a and 21 % of Cmp 1a | 27 % of Cmp 1a and 24 % of Cmp 1a and 4.3 % of Cmp 1a and 2.59 % of Cmp 1a and 7 % of Cmp 1a | 12 % of Cmp 1a (2×) and -2.74 % of Cmp 1a and 7 % of Cmp 1a and 4.7 % of Cmp 1a | 7 % of Cmp 1a and 3 % of Cmp 1a and -1 % of Cmp 1a and 10 % of Cmp 1a and 2.65 % of Cmp 1a | 7 % of Cmp 1a and 1.19 % of Cmp 1a and 6 % of Cmp 1a (2×) and 3 % of Cmp 1a | 11 % of Cmp 1a and 1.67 % of Cmp 1a and 3 % of Cmp 1a and 4.53 % of Cmp 1a and 4.33 % of Cmp 1a | 4 % of Cmp 1a and 35 % of Cmp 1a and 2.33 % of Cmp 1a | -5.46 % of Carbachol and 6 % of Carbachol and 7.55 % of Carbachol |  | 794 | 4- to 16 fold
COc1ccc(-c2nc(CC(=O)NC(C)c3ccccc3)no2)cc1 (centres unmarked) [Compound 1.18, COC1=CC=C(C2=NC(CC(NC(C3=CC=CC=C3)C)=O)=NO2)C=C1] | 43 % of Cmp 1a and 66 % of Cmp 1a and 77 % of Cmp 1a | 1000 | 72 ± 5 | 87 % of Cmp 1a and 72 % of Cmp 1a and 75 % of Cmp 1a | 75 % of Cmp 1a and 67 % of Cmp 1a and 70 % of Cmp 1a | 73 % of Cmp 1a and 53 % of Cmp 1a and 59 % of Cmp 1a | 61 % of Cmp 1a and 23 % of Cmp 1a and 42 % of Cmp 1a | 30 % of Cmp 1a and 3.38 % of Cmp 1a and 24 % of Cmp 1a | 7 % of Cmp 1a and 9 % of Cmp 1a and 8 % of Cmp 1a | 6 % of Cmp 1a and 11 % of Cmp 1a and 5.71 % of Cmp 1a | -0.63 % of Cmp 1a and 3 % of Cmp 1a and 8 % of Cmp 1a | 3.39 % of Cmp 1a and 6.59 % of Cmp 1a and 3.49 % of Cmp 1a | 0.103 % of Cmp 1a and 9 % of Cmp 1a and 2.64 % of Cmp 1a | 26 % of Cmp 1a and 19 % of Cmp 1a and 8 % of Cmp 1a | 2 % of Carbachol and 2.18 % of Carbachol and -0.905 % of Carbachol |  |  | 
